Here are results for five compounds from patent publication US9353101B2 (Merck Sharp & Dohme Corp., priority 2012, dated 2016).

In one series the target is CETP (Homo sapiens (Human), UniProt P11597). Kind of series: Scintillation Proximity Assay (SPA) for CETP Activity. In kind it is biochemical. To be noted: 15 nM CETP, biotinylated LDL, 3H-cholesterol ester HDL; read-out: SPA IC50 (CETP Inhibition). The method, then:
Protocol: Scintillation Proximity Assay (SPA) for CETP Activity
First, low density lipoprotein (LDL) (Meridian) was biotinylated by incubating LDL with biotin for 1 hour on ice, after which it was dialyzed to remove free biotin. Then compounds at varying concentrations were incubated with 15 nM CETP (reagent production group, In Vitro Pharmacology, MRL Rahway) and 50 ug/ml of the biotinylated LDL in 50 mM HEPES, 150 mM NaCl, pH 7.4, for 1 hour at 37° C. The reaction was started by adding ^3H-cholesterol ester high density lipoprotein (HDL) (American Radiochemicals Corp) at a concentration of ˜0.6 nM. The reaction proceeded for 2 hours at 37° C., after which time it was quenched by the addition of 12% acetic acid. PVT streptavadin-coated scintillation proximity beads, which had been brought to room temperature, were then added at a concentration of 4 mg/ml. The assay was then mixed and counted after one half hour in a Microbeta plate reader.
On the technique in general: Scintillation proximity formats need no separation of bound from free tracer.

The conditions of series [1]: cited from earlier work.
For series [2] the following is noted: patients given torcetrapib and atorvastatin concomitantly compared with atorvastatin alone; cited from earlier work.
Where [3] appears, read: patients, anacetrapib with baseline statin therapy compared with just a statin.

Sequence of CETP (P11597 18-493): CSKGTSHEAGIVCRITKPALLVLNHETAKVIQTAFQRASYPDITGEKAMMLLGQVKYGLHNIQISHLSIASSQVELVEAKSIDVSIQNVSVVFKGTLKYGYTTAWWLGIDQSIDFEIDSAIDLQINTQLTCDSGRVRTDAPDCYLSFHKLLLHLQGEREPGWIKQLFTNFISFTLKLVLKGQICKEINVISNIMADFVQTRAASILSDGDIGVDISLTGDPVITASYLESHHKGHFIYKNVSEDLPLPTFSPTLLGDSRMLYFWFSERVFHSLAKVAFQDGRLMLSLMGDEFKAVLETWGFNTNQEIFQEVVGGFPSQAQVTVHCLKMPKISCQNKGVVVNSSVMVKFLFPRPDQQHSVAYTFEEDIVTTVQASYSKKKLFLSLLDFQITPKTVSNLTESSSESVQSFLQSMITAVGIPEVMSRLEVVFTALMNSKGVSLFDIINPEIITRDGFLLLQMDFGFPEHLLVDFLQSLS

What is called IC50 is the point on the concentration scale where inhibition reaches its midpoint. As to `COc1ncc(C2CC2)cc1-c1cnc(N2CCOCC2)nc1CN1C(=O)O[C@H](c2cc(C(F)(F)F)cc(C(F)(F)F)c2)[C@@H]1C` [Example 12, (4S,5R)-5-(3,5-Bis(trifluoromethyl)phenyl)-3-((5-(5-cyclopropyl-2-methoxypyridin-3-yl)-2-morpholinopyrimidin-4-yl)methyl)-4-methyloxazolidin-2-one], the IC50 at CETP was determined as 530 nM.
Regarding `COc1ncc(Cl)cc1-c1cnc(N2CC(F)C2)nc1CN1C(=O)O[C@H](c2cc(F)cc(F)c2)[C@@H]1C` [Example 13, (4S,5R)-3-{[5-(5-Chloro-2-methoxypyridin-3-yl)-2-(3-fluoroazetidin-1-yl)pyrimidin-4-yl]methyl}-5-(3,5-difluorophenyl)-4-methyl-1,3-oxazolidin-2-one], the IC50 at CETP is 728 nM.
On the same count and under the same terms, next, `COc1ncc(C(C)C)cc1-c1cnc(N2CCOCC2)nc1CN1C(=O)O[C@H](c2cc(C(F)(F)F)cc(C(F)(F)F)c2)[C@@H]1C` [Example 15, (4S,5R)-5-[3,5-Bis(trifluoromethyl)phenyl]-3-{[5-(5-isopropyl-2-methoxypyridin-3-yl)-2-(morpholin-4-yl)pyrimidin-4-yl]methyl}-4-methyl-1,3-oxazolidin-2-one]: 229 nM.
In the case of `COc1cc(F)c(C(C)C)cc1-c1ccc(C(F)(F)F)cc1CN1C(=O)O[C@H](c2cc(C(F)(F)F)cc(C(F)(F)F)c2)[C@@H]1C` [anacetrapib], in series [1] (patients treated with anacetrapib), the increase in mortality result was “unlikely”. Also, in series [1] (setting [3]), the “decrease of LDL-C” value is recorded as 40% and the “increase of HDL-C” value was 138%.
For `CCOC(=O)N1c2ccc(C(F)(F)F)cc2[C@@H](N(Cc2cc(C(F)(F)F)cc(C(F)(F)F)c2)C(=O)OC)C[C@H]1CC` [torcetrapib], in series [2], the incidence of mortality result is listed as “higher incidence of mortality”.
